The record followed here is patent US20210161855A1, “5-LIPOXYGENASE ANTAGONISTS” (INSTITUTO DE MEDICINA MOLECULAR JOÃO LOBO ANTUNES, priority 2017, published 2021).

One experiment has as its target T1, 5-LO (Homo sapiens, UniProt P09917).
T1 sequence (P09917 1-674): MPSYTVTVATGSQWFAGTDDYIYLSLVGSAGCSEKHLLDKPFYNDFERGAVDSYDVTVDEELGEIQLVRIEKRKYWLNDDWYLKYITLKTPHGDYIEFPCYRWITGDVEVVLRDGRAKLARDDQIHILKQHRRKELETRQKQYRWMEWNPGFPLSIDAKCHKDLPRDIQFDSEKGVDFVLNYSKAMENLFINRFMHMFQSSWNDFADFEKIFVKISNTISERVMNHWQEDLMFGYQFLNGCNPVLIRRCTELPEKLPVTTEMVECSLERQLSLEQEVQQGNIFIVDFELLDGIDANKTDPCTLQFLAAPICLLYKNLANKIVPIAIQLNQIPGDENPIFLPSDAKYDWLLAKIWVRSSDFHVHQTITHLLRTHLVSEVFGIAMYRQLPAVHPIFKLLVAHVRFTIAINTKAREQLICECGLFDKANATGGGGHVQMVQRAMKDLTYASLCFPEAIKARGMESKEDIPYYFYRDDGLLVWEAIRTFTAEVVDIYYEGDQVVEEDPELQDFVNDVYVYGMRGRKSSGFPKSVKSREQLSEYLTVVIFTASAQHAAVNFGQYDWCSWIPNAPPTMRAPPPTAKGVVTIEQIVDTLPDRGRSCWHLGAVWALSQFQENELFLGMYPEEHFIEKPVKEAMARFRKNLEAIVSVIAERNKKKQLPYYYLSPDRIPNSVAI
Description: 5-LO activity in neutrophil homogenates. In kind it is biochemical. On the set-up: endogenous in cells; host or cells: neutrophils isolated from peripheral blood of healthy adult volunteers; intact or sonicated homogenates. To be noted: neutrophil homogenates, with or without 1 mM DTT. The protocol: Peripheral blood (University Hospital Jena, Germany) was withdrawn from healthy adult volunteers with consent that had not taken any anti-inflammatory drugs during the last 10 days, by venipuncture in heparinized tubes (16 IE heparin/mL blood). The blood was centrifuged at 4000 g for 20 min at 20° C. for preparation of leukocyte concentrates. Leukocyte concentrates were then subjected to dextran sedimentation and centrifugation on lymphocyte separation medium (LSM 1077, PAA, Colbe, Germany). Contaminating erythrocytes of pelleted neutrophils were removed by hypotonic Iysis. Neutrophils were then washed twice in ice-cold PBS and finally resuspended in PBS pH 7.4 containing 1 mg/mL glucose or in PBS pH 7.4 containing 1 mg/mL glucose plus 1 mM CaCl2 (PGC buffer) (purity>96-97%).
For analysis of 5-LO product formation in corresponding homogenates, neutrophils were resuspended in PBS containing 1 mM EDTA for 5 min at 4° C. and sonicated (4×10 s, 4° C.). Homogenates, corresponding to 5×10^6 cells/mL, were incubated with the test compounds or vehicle (0.1% DMSO) with or without 1 mM DTT for 15 min at 4° C., pre-warmed for 30 s at 37° C., and the reaction was started by the addition of 2 mM CaCl2 plus the indicated concentrations of AA (routinely 20 μM). The reaction was stopped after 10 min and the samples were analyzed as described for intact cells above.
Data are expressed as mean±S.E.M. IC50 values were calculated from averaged measurements at 6 different concentrations of the compound by nonlinear regression using GraphPad Prism software (San Diego, Calif.) one site binding competition. Statistical evaluation of the data was performed by one-way ANOVA followed by a Tukey-Kramer post-hoc test for multiple comparisons respectively. A p value<0.05 (*) was considered significant.

The target in the next experiment is T2, 5-lipoxygenase (5-LO) (Homo sapiens, UniProt P09917).
T2 sequence (P09917 1-674): T1 sequence (P09917 1-674)
Description: 5-LO inhibition assay, Method A (Cerep), cell-free functional. In kind it is biochemical. The note with it: 150 μM; read-out: 5-LO inhibition at the assayed concentration. The method, then: Method A: 5-Lipoxygenase (5-LO), 12-lipoxygenase (12-LO) and 15-lipoxygenase-2 (15-LO-2) inhibition assays were performed at Cerep, SA (Celle l'Evescault, France) on a fee-for-service basis (Ref 0772^36, 0883^37 and 0893^38, respectively), as described in Table 1.

For a further experiment, the target named is EP4 (Homo sapiens, UniProt P35408). Description: Prostanoid EP4 receptor antagonism, functional assay. Format: cell-based. To be noted: 150 μM.
Sequence of EP4 (P35408 whole entry): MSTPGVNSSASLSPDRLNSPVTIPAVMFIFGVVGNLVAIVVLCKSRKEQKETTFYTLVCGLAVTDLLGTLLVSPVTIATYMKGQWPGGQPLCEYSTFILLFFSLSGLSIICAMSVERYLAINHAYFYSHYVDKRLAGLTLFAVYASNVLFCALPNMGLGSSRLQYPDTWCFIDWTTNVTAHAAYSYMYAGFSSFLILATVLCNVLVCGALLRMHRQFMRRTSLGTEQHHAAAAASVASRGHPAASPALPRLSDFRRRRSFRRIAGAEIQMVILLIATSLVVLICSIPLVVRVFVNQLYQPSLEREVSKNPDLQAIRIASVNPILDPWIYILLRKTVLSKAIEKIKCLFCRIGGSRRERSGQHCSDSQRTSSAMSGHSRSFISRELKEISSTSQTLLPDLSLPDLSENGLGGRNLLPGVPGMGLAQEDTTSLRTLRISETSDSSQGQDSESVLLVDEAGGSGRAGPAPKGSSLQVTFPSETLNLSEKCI
Another experiment addresses TRPV1 (Homo sapiens, UniProt Q8NER1). The experiment is described as follows: TRPV1 channel antagonism, functional assay. In kind it is cell-based. The note with it: 150 μM.
The target of a further experiment is T3, EP3 (Homo sapiens, UniProt P43115).
T3 sequence (P43115 1-390): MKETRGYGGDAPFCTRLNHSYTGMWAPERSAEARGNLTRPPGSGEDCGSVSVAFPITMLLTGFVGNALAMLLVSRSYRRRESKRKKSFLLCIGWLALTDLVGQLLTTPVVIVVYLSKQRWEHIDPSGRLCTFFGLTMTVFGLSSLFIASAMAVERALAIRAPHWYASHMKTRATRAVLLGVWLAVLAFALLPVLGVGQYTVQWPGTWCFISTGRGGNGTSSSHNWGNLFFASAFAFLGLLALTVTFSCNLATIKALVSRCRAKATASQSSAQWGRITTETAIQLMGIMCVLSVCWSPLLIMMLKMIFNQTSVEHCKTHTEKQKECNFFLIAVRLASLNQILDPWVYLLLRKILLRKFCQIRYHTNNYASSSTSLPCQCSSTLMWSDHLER
The experiment is described as follows: Prostanoid EP3 receptor antagonism, functional assay. The note with it: 150 μM. Format: cell-based.

In another experiment the target is TRPM8 (Homo sapiens, UniProt Q7Z2W7). The experiment is described as follows: TRPM8 channel antagonism, functional assay. To be noted: 150 μM. In kind it is cell-based.
Sequence of TRPM8 (Q7Z2W7 whole entry, species assumed): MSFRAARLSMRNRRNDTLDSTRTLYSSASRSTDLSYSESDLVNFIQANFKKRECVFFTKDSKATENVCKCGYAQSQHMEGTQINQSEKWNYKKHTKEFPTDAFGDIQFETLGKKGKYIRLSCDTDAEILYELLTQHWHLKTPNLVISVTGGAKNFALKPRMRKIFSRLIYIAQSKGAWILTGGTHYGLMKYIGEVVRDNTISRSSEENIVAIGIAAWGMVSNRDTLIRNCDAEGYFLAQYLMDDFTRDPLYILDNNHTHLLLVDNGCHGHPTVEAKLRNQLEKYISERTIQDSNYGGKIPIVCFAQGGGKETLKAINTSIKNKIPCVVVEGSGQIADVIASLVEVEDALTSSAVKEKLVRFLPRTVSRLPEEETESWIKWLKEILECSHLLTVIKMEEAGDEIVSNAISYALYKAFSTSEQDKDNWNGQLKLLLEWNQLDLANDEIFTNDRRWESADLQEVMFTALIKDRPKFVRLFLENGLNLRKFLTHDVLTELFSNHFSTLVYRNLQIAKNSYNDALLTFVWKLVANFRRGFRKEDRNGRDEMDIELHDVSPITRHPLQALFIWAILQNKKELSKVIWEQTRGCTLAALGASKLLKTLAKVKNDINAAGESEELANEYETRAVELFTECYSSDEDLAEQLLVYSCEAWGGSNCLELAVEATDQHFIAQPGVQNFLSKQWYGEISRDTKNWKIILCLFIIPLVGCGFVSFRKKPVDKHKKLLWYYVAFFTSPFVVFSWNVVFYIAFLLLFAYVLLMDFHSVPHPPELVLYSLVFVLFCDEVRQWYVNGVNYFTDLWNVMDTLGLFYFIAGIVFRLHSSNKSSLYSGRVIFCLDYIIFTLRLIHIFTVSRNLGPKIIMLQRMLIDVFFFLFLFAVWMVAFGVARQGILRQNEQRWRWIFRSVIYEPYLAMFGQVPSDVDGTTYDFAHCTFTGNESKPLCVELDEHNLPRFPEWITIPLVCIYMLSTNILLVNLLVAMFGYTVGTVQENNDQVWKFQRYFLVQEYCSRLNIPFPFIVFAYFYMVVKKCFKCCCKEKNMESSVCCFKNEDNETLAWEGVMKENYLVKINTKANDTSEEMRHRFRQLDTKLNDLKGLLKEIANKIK

The structures appear in SMILES notation.

Sequence of TRPV1 (Q8NER1 whole entry, species assumed): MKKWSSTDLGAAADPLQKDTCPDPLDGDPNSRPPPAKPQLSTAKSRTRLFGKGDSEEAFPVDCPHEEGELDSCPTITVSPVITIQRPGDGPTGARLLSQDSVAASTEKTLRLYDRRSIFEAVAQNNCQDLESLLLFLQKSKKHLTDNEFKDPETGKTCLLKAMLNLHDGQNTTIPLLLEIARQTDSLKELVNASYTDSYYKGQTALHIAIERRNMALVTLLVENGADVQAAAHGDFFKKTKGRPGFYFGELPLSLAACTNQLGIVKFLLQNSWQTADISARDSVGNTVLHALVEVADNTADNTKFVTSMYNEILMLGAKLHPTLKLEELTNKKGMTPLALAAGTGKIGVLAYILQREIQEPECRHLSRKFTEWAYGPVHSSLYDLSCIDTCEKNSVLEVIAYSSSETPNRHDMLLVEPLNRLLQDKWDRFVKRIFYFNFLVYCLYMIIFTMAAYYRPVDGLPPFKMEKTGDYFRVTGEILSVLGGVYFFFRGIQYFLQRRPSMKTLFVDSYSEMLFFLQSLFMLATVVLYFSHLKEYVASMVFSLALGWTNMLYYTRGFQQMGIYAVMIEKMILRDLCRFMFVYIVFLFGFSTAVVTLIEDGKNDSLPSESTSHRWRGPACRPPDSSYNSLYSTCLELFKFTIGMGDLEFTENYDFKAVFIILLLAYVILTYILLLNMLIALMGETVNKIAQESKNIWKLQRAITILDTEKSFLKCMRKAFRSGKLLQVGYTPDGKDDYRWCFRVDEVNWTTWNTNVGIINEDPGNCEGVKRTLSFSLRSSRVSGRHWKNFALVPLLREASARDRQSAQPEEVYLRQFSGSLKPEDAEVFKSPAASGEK

In the case of `CC(c1cc2ccccc2s1)N(O)C(N)=O` (stereo not drawn) [zileuton, reference compound], the “Dependence of inhibition on DTT” value at 5-LO is given as “independent of DTT”.
As to `CC(C)=CCC1=C(O)C(=O)c2ccccc2C1=O` [Compound 2, 2-hydroxy-3-(3′-methyl-2′-butenyl)-1,4-naphthoquinone], the inhibition at 150 µM at 5-lipoxygenase (5-LO) was found to be 87%. This molecule displayed an EP4 antagonist effect at EP4 of 56%. At TRPV1, the TRPV1 antagonist effect is 65%. At EP3, this molecule showed an EP3 antagonist effect of 50%. The molecule further yielded a TRPM8 antagonist effect on TRPM8 of 91%.
